Results as given in BigSolDB 2.1.

Compound `Brc1sc(Br)c(Br)c1Br` has a solubility (mole fraction) (in THF, 278.15 K) of 0.0397, a solubility (mole fraction) (in THF, 282.15 K) of 0.043 and a solubility (mole fraction) (in THF, 286.15 K) of 0.0463. The solubility (mole fraction) (in THF, 290.15 K) was 0.05, the solubility (mole fraction) (in THF, 294.15 K) was 0.0539 and the solubility (mole fraction) (in THF, 298.15 K) was 0.0581. For the same compound, the solubility (mole fraction) (in THF, 302.15 K) was 0.0627, the solubility (mole fraction) (in THF, 306.15 K) was 0.0671 and the solubility (mole fraction) (in THF, 310.15 K) was 0.0719. For the same compound, the solubility (mole fraction) (in THF, 314.15 K) was 0.0766, the solubility (mole fraction) (in THF, 318.15 K) was 0.082 and the solubility (mole fraction) (in THF, 322.15 K) was 0.0869. For the same compound, the solubility (mole fraction) (in ethanol, 278.15 K) was 0.00126, the solubility (mole fraction) (in ethanol, 282.15 K) was 0.00134 and the solubility (mole fraction) (in ethanol, 286.15 K) was 0.00151. It also gave a solubility (mole fraction) (in ethanol, 290.15 K) of 0.00181, a solubility (mole fraction) (in ethanol, 294.15 K) of 0.00206 and a solubility (mole fraction) (in ethanol, 298.15 K) of 0.00241. The solubility (mole fraction) (in ethanol, 302.15 K) was 0.00268, the solubility (mole fraction) (in ethanol, 306.15 K) was 0.00305 and the solubility (mole fraction) (in ethanol, 310.15 K) was 0.00353. The solubility (mole fraction) (in ethanol, 314.15 K) was 0.00389, the solubility (mole fraction) (in ethanol, 318.15 K) was 0.00442 and the solubility (mole fraction) (in ethanol, 322.15 K) was 0.00501.
